The source of these data is ChEMBL document CHEMBL4145540 (Eur J Med Chem, 2018).

Active and inactive are the calls of the source. No cut-off for these calls is given here.

Experiment [1] concerns A549. Briefly: Cell cycle arrest in human A549 cells assessed as accumulation at sub-G0 phase at 1500 nM after 20 hrs by propidium iodide staining based flow cytometry (reference value: 6.6 +/- 0.1%). In kind it is functional. Background: Flow cytometry measures light scatter and fluorescence of single cells or particles in a stream.
Experiment [2] relates to A549. The experiment can be described thus: Antiproliferative activity against human A549 cells after 2 days by MTT assay. In kind it is functional, cell-based. As to conditions: A549, 48 h. In general terms: Tetrazolium dyes change colour on reduction, which living cells bring about.
Experiment [3] has as its system HMEC-1. Briefly: Antiproliferative activity against HMEC1 cells after 2 days by MTT assay. The class given is functional, cell-based. To be noted: Homo sapiens, HMEC-1, 48 h.
A further experiment relates to HeLa. The experiment can be described thus: Antiproliferative activity against human HeLa cells after 2 days by MTT assay. As to conditions: 48 h. In kind it is functional, cell-based.
Experiment [4] concerns A549. The experiment can be described thus: Cell cycle arrest in human A549 cells assessed as accumulation at G2/M phase at 1500 nM after 20 hrs by propidium iodide staining based flow cytometry (reference value: 11 +/- 1%). In kind it is functional.
The subject of another experiment is MCF7. Briefly: Antiproliferative activity against human MCF7 cells after 2 days by MTT assay. In kind it is functional, cell-based. As to conditions: MCF7, 48 h.
The subject of the next experiment is HEK293. The experiment can be described thus: Antiproliferative activity against HEK293 cells after 2 days by MTT assay. In kind it is cell-based. To be noted: Homo sapiens, HEK293, 48 h.
For experiment [5], the system named is A549. Briefly: Cell cycle arrest in human A549 cells assessed as accumulation at S phase at 1500 nM after 20 hrs by propidium iodide staining based flow cytometry (reference value: 16 +/- 1%). In kind it is functional.
The next experiment deals with HT-29. The experiment can be described thus: Antiproliferative activity against human HT-29 cells after 2 days by MTT assay. The class given is functional, cell-based. To be noted: HT-29, 48 h.
A further experiment deals with HL-60. Briefly: Antiproliferative activity against human HL60 cells after 2 days by MTT assay. As to conditions: HL-60, 48 h. In kind it is functional, cell-based.
Experiment [6] has as its system A549. The experiment can be described thus: Cell cycle arrest in human A549 cells assessed as accumulation at G0/G1 phase at 1500 nM after 20 hrs by propidium iodide staining based flow cytometry (reference value: 66 +/- 1%). In kind it is functional.
For experiment [7], the system named is MDA-MB-231. The experiment can be described thus: Antiproliferative activity against human MDA-MB-231 cells after 3 days by coulter counting method. The class given is functional, cell-based. To be noted: MDA-MB-231, 72 h.
Experiment [8] relates to HMEC-1. The experiment can be described thus: Vascular disruptive activity in HMEC1 cells assessed as disruption of preformed tubular networks after 4 hrs by matrigel based assay. The class given is functional, cell-based. To be noted: Homo sapiens.
Experiment [9] relates to MDA-MB-231. Briefly: Inhibition of EBI binding to beta-tubulin colchicine binding site in human MDA-MB-231 cells at 100 uM preincubated for 16 hrs followed by EBI addition and measured after 1.5 hrs by Western blot analysis. In kind it is cell-based.
The subject of experiment [10] is A549. Briefly: Cell cycle arrest in human A549 cells assessed as accumulation at G0/G1 phase at 160 nM after 20 hrs by propidium iodide staining based flow cytometry (reference value: 66 +/- 1%). In kind it is functional.
In experiment [11] the test system is A549. Briefly: Cell cycle arrest in human A549 cells assessed as accumulation at G2/M phase at 160 nM after 20 hrs by propidium iodide staining based flow cytometry (reference value: 11 +/- 1%). In kind it is functional.
The subject of experiment [12] is A549. Briefly: Cell cycle arrest in human A549 cells assessed as accumulation at sub-G0 phase at 160 nM after 20 hrs by propidium iodide staining based flow cytometry (reference value: 6.6 +/- 0.1%). In kind it is functional.
In experiment [13] the test system is A549. Briefly: Cell cycle arrest in human A549 cells assessed as accumulation at S phase at 160 nM after 20 hrs by propidium iodide staining based flow cytometry (reference value: 16 +/- 1%). In kind it is functional.
Experiment [14] deals with A549. The experiment can be described thus: Cell cycle arrest in human A549 cells assessed as accumulation at sub-G0 phase at 90 nM after 20 hrs by propidium iodide staining based flow cytometry (reference value: 6.6 +/- 0.1%). In kind it is functional.
The test system of experiment [15] is A549. The experiment can be described thus: Cell cycle arrest in human A549 cells assessed as accumulation at G2/M phase at 90 nM after 20 hrs by propidium iodide staining based flow cytometry (reference value: 11 +/- 1%). In kind it is functional.
Experiment [16] has as its system A549. The experiment can be described thus: Cell cycle arrest in human A549 cells assessed as accumulation at S phase at 90 nM after 20 hrs by propidium iodide staining based flow cytometry (reference value: 16 +/- 1%). The class given is functional.
Experiment [17] has as its system A549. The experiment can be described thus: Cell cycle arrest in human A549 cells assessed as accumulation at G0/G1 phase at 90 nM after 20 hrs by propidium iodide staining based flow cytometry (reference value: 66 +/- 1%). The class given is functional.
Experiment [18] concerns A549. The experiment can be described thus: Cell cycle arrest in human A549 cells assessed as accumulation at G2/M phase at 400 nM after 20 hrs by propidium iodide staining based flow cytometry (reference value: 11 +/- 1%). In kind it is functional.
Experiment [19] has as its system A549. Briefly: Cell cycle arrest in human A549 cells assessed as accumulation at S phase at 400 nM after 20 hrs by propidium iodide staining based flow cytometry (reference value: 16 +/- 1%). In kind it is functional.
Experiment [20] deals with A549. The experiment can be described thus: Cell cycle arrest in human A549 cells assessed as accumulation at G0/G1 phase at 400 nM after 20 hrs by propidium iodide staining based flow cytometry (reference value: 66 +/- 1%). The class given is functional.
Experiment [21] concerns A549. Briefly: Cell cycle arrest in human A549 cells assessed as accumulation at sub-G0 phase at 400 nM after 20 hrs by propidium iodide staining based flow cytometry (reference value: 6.6 +/- 0.1%). The class given is functional.
The test system of experiment [22] is A549. The experiment can be described thus: Cell cycle arrest in human A549 cells assessed as accumulation at G2/M phase at 275 nM after 20 hrs by propidium iodide staining based flow cytometry (reference value: 11 +/- 1%). In kind it is functional.
In experiment [23] the test system is A549. Briefly: Cell cycle arrest in human A549 cells assessed as accumulation at G0/G1 phase at 275 nM after 20 hrs by propidium iodide staining based flow cytometry (reference value: 66 +/- 1%). In kind it is functional.
Experiment [24] deals with MDA-MB-231. Briefly: Inhibition of EBI binding to beta-tubulin colchicine binding site in human MDA-MB-231 cells at 10 uM preincubated for 16 hrs followed by EBI addition and measured after 1.5 hrs by Western blot analysis. In kind it is cell-based. In general terms: A western blot detects proteins with antibodies after separation by electrophoresis.
Experiment [25] concerns A549. Briefly: Cell cycle arrest in human A549 cells assessed as accumulation at S phase at 275 nM after 20 hrs by propidium iodide staining based flow cytometry (reference value: 16 +/- 1%). The class given is functional.
The subject of experiment [26] is A549. Briefly: Cell cycle arrest in human A549 cells assessed as accumulation at sub-G0 phase at 275 nM after 20 hrs by propidium iodide staining based flow cytometry (reference value: 6.6 +/- 0.1%). In kind it is functional.
In experiment [27] the test system is A549. The experiment can be described thus: Cell cycle arrest in human A549 cells assessed as accumulation at G0/G1 phase at 230 nM after 20 hrs by propidium iodide staining based flow cytometry (reference value: 66 +/- 1%). The class given is functional.
For experiment [28], the system named is A549. The experiment can be described thus: Cell cycle arrest in human A549 cells assessed as accumulation at G2/M phase at 230 nM after 20 hrs by propidium iodide staining based flow cytometry (reference value: 11 +/- 1%). In kind it is functional.
The test system of experiment [29] is A549. Briefly: Cell cycle arrest in human A549 cells assessed as accumulation at S phase at 230 nM after 20 hrs by propidium iodide staining based flow cytometry (reference value: 16 +/- 1%). The class given is functional.
The subject of experiment [30] is A549. The experiment can be described thus: Cell cycle arrest in human A549 cells assessed as accumulation at sub-G0 phase at 230 nM after 20 hrs by propidium iodide staining based flow cytometry (reference value: 6.6 +/- 0.1%). In kind it is functional.

Usually IC50 stands for the concentration that gives 50% inhibition. Read a low IC50 as greater potency in that assay. Turning to `COc1ccc(/C=C\c2cc(OC)c(OC)c(OC)c2)cc1NC(=O)Oc1ccccc1OC`, the Activity was 17% with A549 [1]; 43% in the experiment on A549 [4]; 12% with A549 [5]; 29% in the experiment on A549 [6]; “Dose-dependent effect” in the experiment on HMEC-1 [8]. Besides, the IC50 with A549 [2] is 3000 nM; in the experiment with HMEC-1 [3], 400 nM; with HeLa, 348 nM; in the experiment on MCF7, 230 nM; in the experiment on HEK293 it was 160 nM; with HT-29 it was 290 nM. Also, the values for the IC50 in the experiment with HL-60 and in the experiment on MDA-MB-231 [7] were 350 nM and greater than 100 nM, respectively. In the experiment with MDA-MB-231 [9], the inhibition result is “Active”.

Take `COc1ccc(/C=C\c2cc(OC)c(OC)c(OC)c2)cc1NC(=O)Oc1ccccc1F`: the Activity is 31% in the experiment with A549 [10], 39% with A549 [11], 17% with A549 [12] and 13% in the experiment on A549 [13]. Moreover, the IC50 with A549 [2] is 320 nM; with HMEC-1 [3] it was 180 nM; in the experiment on HeLa, 17 nM; in the experiment with MCF7 it was 62 nM; in the experiment with HEK293, 65 nM; in the experiment with HT-29 it was 110 nM. Also, the IC50 with HL-60 is 4 nM; in the experiment on MDA-MB-231 [7], 71 nM.

As to `COc1ccc(/C=C\c2cc(OC)c(OC)c(OC)c2)cc1NC(=O)Oc1ccccc1Br`, the IC50 with A549 [2] was determined as 180 nM; with HMEC-1 [3] it was 22 nM; with HeLa, 2.6 nM; in the experiment with MCF7, 18.9 nM; in the experiment on HEK293, 8 nM; in the experiment on HT-29, 7.5 nM. In addition, the IC50 with HL-60 came to 3 nM; in the experiment with MDA-MB-231 [7], 13.4 nM. Besides, the Activity in the experiment with A549 [14] is 17%; in the experiment with A549 [15], 44%; with A549 [16], 10%; with A549 [17] it was 29%.

For `COc1ccc(/C=C\c2cc(OC)c(OC)c(OC)c2)cc1NC(=O)Oc1ccc(Cl)cc1`, the Activity in the experiment with A549 [18] is 41%; in the experiment on A549 [19], 18%; in the experiment on A549 [20] it was 21%; with A549 [21] it was 20%. Further, the half-inhibitory concentration (IC50) was determined as 800 nM in the experiment with A549 [2]; 76 nM with HMEC-1 [3]; 24 nM in the experiment with HeLa; 82 nM with MCF7; 142 nM in the experiment with HEK293; 31 nM in the experiment on HT-29. The figures for the IC50 with HL-60 and in the experiment on MDA-MB-231 [7] were 770 nM and 9.39 nM, respectively.

On to `COc1ccc(OC(=O)Nc2cc(/C=C\c3cc(OC)c(OC)c(OC)c3)ccc2OC)cc1`, for which the Activity with A549 [22] was 46%; in the experiment on A549 [23], 25%; with A549 [25] it was 14%; in the experiment with HMEC-1 [8], “Dose-dependent effect”; in the experiment with A549 [26], 14%. For the same molecule, the IC50 was determined as 550 nM in the experiment with A549 [2]; 120 nM in the experiment on HMEC-1 [3]; 200 nM with HeLa; 230 nM in the experiment on MCF7; 130 nM with HEK293; 350 nM in the experiment on HT-29. For the same molecule, the half-maximal inhibitory concentration (IC50) is 50 nM with HL-60 and 69 nM in the experiment with MDA-MB-231 [7]. Also, the inhibition entry in the experiment on MDA-MB-231 [24] is “Active”.

As for `COc1ccc(/C=C\c2cc(OC)c(OC)c(OC)c2)cc1NC(=O)Oc1ccccc1C`, the IC50 came to 460 nM in the experiment with A549 [2]; 55 nM in the experiment with HMEC-1 [3]; 50 nM with HeLa; 380 nM in the experiment on MCF7; 60 nM in the experiment with HEK293; 160 nM in the experiment on HT-29. Further, the figures for the IC50 with HL-60 and in the experiment on MDA-MB-231 [7] were 222 nM and 21 nM, respectively. Further, the Activity is listed as 31% with A549 [27], 40% with A549 [28], 13% in the experiment on A549 [29] and 16% with A549 [30].
